Laboratory results from patent EP4745137A1 (Gluetacs Therapeutics (Shanghai) Co., Ltd., priority 2023, dated 2025).

What was measured:
IKZF2 = biological target: T1, IKZF2 (Homo sapiens, UniProt Q96SW2+Q9UKS7); test: Western-blot assay of substrate protein degradation in hPBMCs, IKZF2; type: cell-based; conditions: 24 hours of compound treatment, compounds tested at 50 nM and 500 nM (concentration of the table not stated)
T1 construct: endogenous in cells; host or cells: hPBMCs (Milecell Biotechnologies)
T1 sequence (Q9UKS7 whole entry): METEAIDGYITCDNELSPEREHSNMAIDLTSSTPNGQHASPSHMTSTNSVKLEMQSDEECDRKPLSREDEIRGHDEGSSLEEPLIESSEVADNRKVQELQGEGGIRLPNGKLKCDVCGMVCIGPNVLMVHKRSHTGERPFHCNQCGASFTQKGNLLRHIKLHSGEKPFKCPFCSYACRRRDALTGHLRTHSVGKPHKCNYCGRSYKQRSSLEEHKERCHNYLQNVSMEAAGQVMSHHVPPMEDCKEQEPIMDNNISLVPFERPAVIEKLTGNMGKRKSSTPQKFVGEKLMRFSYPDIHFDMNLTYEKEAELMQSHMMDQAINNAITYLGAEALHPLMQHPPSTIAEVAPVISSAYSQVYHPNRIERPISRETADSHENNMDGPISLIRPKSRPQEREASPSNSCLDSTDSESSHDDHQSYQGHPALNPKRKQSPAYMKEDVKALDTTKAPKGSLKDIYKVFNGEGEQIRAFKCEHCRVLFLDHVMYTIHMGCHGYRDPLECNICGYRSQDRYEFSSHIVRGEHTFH
T1 sequence (Q96SW2 whole entry): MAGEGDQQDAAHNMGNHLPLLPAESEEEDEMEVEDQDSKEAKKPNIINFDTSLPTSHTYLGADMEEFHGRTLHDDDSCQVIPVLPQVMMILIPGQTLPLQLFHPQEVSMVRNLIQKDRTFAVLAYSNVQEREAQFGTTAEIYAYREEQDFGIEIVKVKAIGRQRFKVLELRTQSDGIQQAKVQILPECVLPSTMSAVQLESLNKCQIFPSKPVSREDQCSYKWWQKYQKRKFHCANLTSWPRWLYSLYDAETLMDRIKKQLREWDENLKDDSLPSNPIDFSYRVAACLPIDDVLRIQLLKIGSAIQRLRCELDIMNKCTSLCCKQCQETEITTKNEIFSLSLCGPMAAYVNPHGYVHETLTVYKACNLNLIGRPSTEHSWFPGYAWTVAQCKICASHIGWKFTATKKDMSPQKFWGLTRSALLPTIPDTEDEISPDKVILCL
T1 sequence (Q16531 whole entry partner): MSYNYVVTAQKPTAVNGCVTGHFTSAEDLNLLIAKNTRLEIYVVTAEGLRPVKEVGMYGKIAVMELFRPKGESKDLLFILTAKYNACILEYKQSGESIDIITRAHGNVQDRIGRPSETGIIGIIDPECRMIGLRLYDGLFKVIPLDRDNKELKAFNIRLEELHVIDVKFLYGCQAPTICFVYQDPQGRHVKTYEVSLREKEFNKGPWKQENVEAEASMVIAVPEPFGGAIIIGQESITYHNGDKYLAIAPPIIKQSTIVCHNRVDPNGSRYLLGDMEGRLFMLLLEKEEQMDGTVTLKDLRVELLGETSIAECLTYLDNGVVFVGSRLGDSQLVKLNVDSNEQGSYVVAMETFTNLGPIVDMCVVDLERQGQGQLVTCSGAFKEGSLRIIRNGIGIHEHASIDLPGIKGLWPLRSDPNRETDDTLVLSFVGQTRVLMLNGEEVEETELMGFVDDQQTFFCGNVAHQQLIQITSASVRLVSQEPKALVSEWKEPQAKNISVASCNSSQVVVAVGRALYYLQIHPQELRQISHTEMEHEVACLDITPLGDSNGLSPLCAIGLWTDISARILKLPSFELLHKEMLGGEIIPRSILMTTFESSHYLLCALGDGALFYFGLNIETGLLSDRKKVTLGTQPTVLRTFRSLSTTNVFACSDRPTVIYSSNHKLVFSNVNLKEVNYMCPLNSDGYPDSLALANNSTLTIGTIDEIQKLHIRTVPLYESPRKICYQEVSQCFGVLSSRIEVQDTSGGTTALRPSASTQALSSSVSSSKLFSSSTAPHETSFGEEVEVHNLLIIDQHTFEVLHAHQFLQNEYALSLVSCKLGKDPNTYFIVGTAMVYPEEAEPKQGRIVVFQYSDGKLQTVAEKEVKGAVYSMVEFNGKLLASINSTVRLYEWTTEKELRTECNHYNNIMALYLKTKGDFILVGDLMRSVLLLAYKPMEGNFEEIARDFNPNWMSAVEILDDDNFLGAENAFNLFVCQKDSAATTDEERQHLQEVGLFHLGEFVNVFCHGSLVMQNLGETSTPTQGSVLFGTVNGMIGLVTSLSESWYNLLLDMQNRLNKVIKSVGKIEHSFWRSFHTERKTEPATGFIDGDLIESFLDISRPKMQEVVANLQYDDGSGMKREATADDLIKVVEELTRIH

IKZF1 = biological target: T2, IKZF1 (Homo sapiens, UniProt Q13422+Q96SW2); test: Western-blot assay of substrate protein degradation in hPBMCs, IKZF1; type: cell-based; conditions: 24 hours of compound treatment, compounds tested at 50 nM and 500 nM (concentration of the table not stated)
T2 construct: endogenous in cells; host or cells: hPBMCs (Milecell Biotechnologies)
T2 sequence (Q13422 whole entry): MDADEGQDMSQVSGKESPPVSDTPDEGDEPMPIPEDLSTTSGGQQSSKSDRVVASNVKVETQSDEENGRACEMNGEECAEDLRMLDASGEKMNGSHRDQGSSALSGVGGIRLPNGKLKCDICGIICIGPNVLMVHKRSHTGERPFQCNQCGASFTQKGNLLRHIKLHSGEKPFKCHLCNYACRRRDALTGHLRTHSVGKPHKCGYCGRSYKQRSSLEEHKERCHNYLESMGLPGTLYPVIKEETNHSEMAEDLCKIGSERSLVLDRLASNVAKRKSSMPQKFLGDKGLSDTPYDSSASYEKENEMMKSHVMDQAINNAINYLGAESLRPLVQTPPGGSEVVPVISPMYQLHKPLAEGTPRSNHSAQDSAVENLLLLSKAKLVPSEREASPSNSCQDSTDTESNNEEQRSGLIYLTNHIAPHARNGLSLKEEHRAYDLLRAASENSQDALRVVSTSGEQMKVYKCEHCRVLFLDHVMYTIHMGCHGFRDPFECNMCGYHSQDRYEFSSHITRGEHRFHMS
T2 sequence (Q96SW2 whole entry): as the sequence (Q96SW2 whole entry) above
T2 sequence (Q16531 whole entry partner): as the sequence (Q16531 whole entry partner) above

WEE1 = biological target: T3, WEE1 (Homo sapiens, UniProt P30291+Q96SW2); test: Western-blot assay of substrate protein degradation in hPBMCs, WEE1; type: cell-based; conditions: 24 hours of compound treatment, compounds tested at 50 nM and 500 nM (concentration of the table not stated)
T3 construct: endogenous in cells; host or cells: hPBMCs (Milecell Biotechnologies)
T3 sequence (P30291 whole entry): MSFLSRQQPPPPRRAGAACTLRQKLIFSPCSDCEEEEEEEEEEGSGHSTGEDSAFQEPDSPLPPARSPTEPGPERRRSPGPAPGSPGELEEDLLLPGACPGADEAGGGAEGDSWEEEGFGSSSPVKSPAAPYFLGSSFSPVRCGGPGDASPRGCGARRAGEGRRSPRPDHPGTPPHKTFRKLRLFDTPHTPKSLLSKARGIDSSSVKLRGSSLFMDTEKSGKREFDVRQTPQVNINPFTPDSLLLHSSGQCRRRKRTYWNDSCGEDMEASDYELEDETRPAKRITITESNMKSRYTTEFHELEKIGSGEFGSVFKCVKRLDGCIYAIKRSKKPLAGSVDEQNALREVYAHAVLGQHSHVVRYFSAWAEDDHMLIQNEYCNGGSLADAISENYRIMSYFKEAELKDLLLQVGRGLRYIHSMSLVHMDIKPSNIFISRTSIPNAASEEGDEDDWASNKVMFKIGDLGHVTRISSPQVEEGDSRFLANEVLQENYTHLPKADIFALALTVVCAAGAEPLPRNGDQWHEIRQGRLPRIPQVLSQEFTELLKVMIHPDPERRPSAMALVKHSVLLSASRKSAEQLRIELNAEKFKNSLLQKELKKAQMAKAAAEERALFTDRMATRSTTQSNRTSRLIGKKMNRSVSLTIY
T3 sequence (Q96SW2 whole entry): as the sequence (Q96SW2 whole entry) above
T3 sequence (Q16531 whole entry partner): as the sequence (Q16531 whole entry partner) above

CK1α = biological target: T4, CK1α (Homo sapiens, UniProt P48729+Q96SW2); test: Western-blot assay of substrate protein degradation in hPBMCs, CK1α; type: cell-based; conditions: 24 hours of compound treatment, compounds tested at 50 nM and 500 nM (concentration of the table not stated)
T4 construct: endogenous in cells; host or cells: hPBMCs (Milecell Biotechnologies)
T4 sequence (P48729 whole entry): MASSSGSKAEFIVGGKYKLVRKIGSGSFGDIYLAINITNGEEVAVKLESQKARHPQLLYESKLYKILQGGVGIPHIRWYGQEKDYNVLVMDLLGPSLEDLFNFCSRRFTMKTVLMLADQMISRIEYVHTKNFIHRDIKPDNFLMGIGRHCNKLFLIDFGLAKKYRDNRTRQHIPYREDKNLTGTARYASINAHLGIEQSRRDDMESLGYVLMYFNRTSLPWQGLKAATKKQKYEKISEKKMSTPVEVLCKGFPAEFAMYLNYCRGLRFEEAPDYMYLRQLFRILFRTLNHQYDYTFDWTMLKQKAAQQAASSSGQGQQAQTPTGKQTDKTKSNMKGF
T4 sequence (Q96SW2 whole entry): as the sequence (Q96SW2 whole entry) above
T4 sequence (Q16531 whole entry partner): as the sequence (Q16531 whole entry partner) above

IKZF3 = biological target: T5, IKZF3 (Homo sapiens, UniProt Q96SW2+Q9UKT9); test: Western-blot assay of substrate protein degradation in hPBMCs, IKZF3; type: cell-based; conditions: 24 hours of compound treatment, compounds tested at 50 nM and 500 nM (concentration of the table not stated)
T5 construct: endogenous in cells; host or cells: hPBMCs (Milecell Biotechnologies)
T5 sequence (Q9UKT9 whole entry): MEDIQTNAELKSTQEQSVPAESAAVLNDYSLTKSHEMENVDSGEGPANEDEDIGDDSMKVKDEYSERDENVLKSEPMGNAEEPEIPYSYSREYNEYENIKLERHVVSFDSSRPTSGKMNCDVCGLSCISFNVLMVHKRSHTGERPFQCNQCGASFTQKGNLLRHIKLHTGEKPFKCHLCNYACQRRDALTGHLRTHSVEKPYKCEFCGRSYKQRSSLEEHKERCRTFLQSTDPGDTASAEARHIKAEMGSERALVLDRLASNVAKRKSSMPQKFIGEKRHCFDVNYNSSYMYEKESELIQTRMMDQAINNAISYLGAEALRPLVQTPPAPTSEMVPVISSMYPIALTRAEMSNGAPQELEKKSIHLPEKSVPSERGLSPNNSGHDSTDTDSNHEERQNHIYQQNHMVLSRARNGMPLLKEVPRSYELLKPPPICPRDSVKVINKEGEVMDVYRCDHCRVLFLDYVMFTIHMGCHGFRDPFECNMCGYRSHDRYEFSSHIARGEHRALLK
T5 sequence (Q96SW2 whole entry): as the sequence (Q96SW2 whole entry) above
T5 sequence (Q16531 whole entry partner): as the sequence (Q16531 whole entry partner) above

[1] = biological target: T6, human Cereblon WT GST-tagged protein (Homo sapiens, UniProt Q96SW2); test: CRBN-binding affinity by HTRF (CEREBLON BINDING kit); conditions: HTRF inhibitory activity, CEREBLON BINDING kit; read-out: HTRF IC50
T6 construct: purchased CISBIO 64BDCRBNPEH
T6 sequence (Q96SW2 whole entry): as the sequence (Q96SW2 whole entry) above

GSPT1 = biological target: T7, GSPT1 (Homo sapiens, UniProt P15170+Q96SW2); test: Western-blot assay of substrate protein degradation in hPBMCs, GSPT1; type: cell-based; conditions: 24 hours of compound treatment, compounds tested at 50 nM and 500 nM (concentration of the table not stated)
T7 construct: endogenous in cells; host or cells: hPBMCs (Milecell Biotechnologies)

SMILES | IKZF2 substrate protein remaining % (IKZF2) | IKZF 1 substrate protein remaining % (IKZF1) | Weel substrate protein remaining % (WEE1) | CK1a substrate protein remaining % (CK1α) | IKZF3 substrate protein remaining % (IKZF3) | IC50 [1] [nM] | GSPT1 substrate protein remaining % (GSPT1)
O=C1CCC(N2Cc3cc(CN4CCN(c5ccnc(Cl)c5Cl)CC4)ccc3C2=O)C(=O)N1 (centres unmarked) [GT-04542, 3-(5-((4-(2,3-dichloropyridin-4-yl)piperazin-1-yl)methyl)-1-oxoisoindolin-2-yl)piperidine-2,6-dione] | A (0% ≤ substrate protein remaining % ≤ 80%) | A (0% ≤ substrate protein remaining % ≤ 80%) | A (0% ≤ substrate protein remaining % ≤ 80%) | B (80%< substrate protein remaining %≤ 100%) | A (0% ≤ substrate protein remaining % ≤ 80%) | < 500 | A (0% ≤ substrate protein remaining % ≤ 80%)
O=C1CCC(N2Cc3cc(CN4CCN(c5ccnc(F)c5F)CC4)ccc3C2=O)C(=O)N1 (centres unmarked) [GT-04543, 3-(5-((4-(2,3-difluoropyridin-4-yl)piperazin-1-yl)methyl)-1-oxoisoindolin-2-yl)piperidine-2,6-dione] | A (0% ≤ substrate protein remaining % ≤ 80%) | A (0% ≤ substrate protein remaining % ≤ 80%) | A (0% ≤ substrate protein remaining % ≤ 80%) | B (80%< substrate protein remaining %≤ 100%) | A (0% ≤ substrate protein remaining % ≤ 80%) | 500 to 1000 | A (0% ≤ substrate protein remaining % ≤ 80%)
O=C1CCC(N2Cc3cc(CN4CCC(c5ccnc(F)c5F)CC4)ccc3C2=O)C(=O)N1 (centres unmarked) [GT-04556, 3-(5-((4-(2,3-difluoropyridin-4-yl)piperidin-1-yl)methyl)-1-oxoisoindolin-2-yl)piperidine-2,6-dione] | A (0% ≤ substrate protein remaining % ≤ 80%) | A (0% ≤ substrate protein remaining % ≤ 80%) | A (0% ≤ substrate protein remaining % ≤ 80%) | A (0% ≤ substrate protein remaining % ≤ 80%) | A (0% ≤ substrate protein remaining % ≤ 80%) | 500 to 1000 | A (0% ≤ substrate protein remaining % ≤ 80%)
O=C1CCC(N2Cc3cc(CN4CCN(c5nccc(I)c5F)CC4)ccc3C2=O)C(=O)N1 (centres unmarked) [GT-04557, 3-(5-((4-(3-fluoro-4-iodopyridin-2-yl)piperazin-1-yl)methyl)-1-oxoisoindolin-2-yl)piperidine-2,6-dione] | A (0% ≤ substrate protein remaining % ≤ 80%) | A (0% ≤ substrate protein remaining % ≤ 80%) | A (0% ≤ substrate protein remaining % ≤ 80%) | A (0% ≤ substrate protein remaining % ≤ 80%) | A (0% ≤ substrate protein remaining % ≤ 80%) | 500 to 1000 | A (0% ≤ substrate protein remaining % ≤ 80%)
O=C1CCC(N2Cc3cc(CN4CCN(c5ncccc5F)CC4)ccc3C2=O)C(=O)N1 (centres unmarked) [GT-04578, 3-(5-((4-(3-fluoropyridin-2-yl)piperazin-1-yl)methyl)-1-oxoisoindolin-2-yl)piperidine-2,6-dione] | A (0% ≤ substrate protein remaining % ≤ 80%) | B (80%< substrate protein remaining %≤ 100%) | B (80%< substrate protein remaining %≤ 100%) | A (0% ≤ substrate protein remaining % ≤ 80%) | B (80%< substrate protein remaining %≤ 100%) | 1000 to 1500 | A (0% ≤ substrate protein remaining % ≤ 80%)
